According to the CheMixHub viscosity set:

Experiment: xn = mol fraction of the nth substance listed
Details: 101 kPa

CCCCCCCCCO + CCCO
viscosity [mPa·s]
Details	298.15 K	308.15 K	318.15 K
x2 = 0.05	8.682	6.217	4.482
x2 = 0.1	8.263	5.92	4.293
x2 = 0.15	7.846	5.632	4.11
x2 = 0.2	7.432	5.351	3.929
x2 = 0.25	7.022	5.076	3.752
x2 = 0.3	6.618	4.806	3.575
x2 = 0.35	6.22	4.542	3.399
x2 = 0.4	5.83	4.282	3.223
x2 = 0.45	5.447	4.026	3.046
x2 = 0.5	5.073	3.774	2.869
x2 = 0.55	4.708	3.525	2.691
x2 = 0.6	4.352	3.279	2.514
x2 = 0.65	4.005	3.037	2.337
x2 = 0.7	3.668	2.798	2.161
x2 = 0.75	3.34	2.563	1.988
x2 = 0.8	3.022	2.332	1.819
x2 = 0.85	2.712	2.106	1.656
x2 = 0.9	2.412	1.884	1.5
x2 = 0.95	2.12	1.668	1.354
